Laboratory results reported in patent publication US20080146538A1, “Compounds 614” (priority 2006, published 2008).
Counter-ions that a name gives are not always drawn.

How the values were obtained:
human NK1 receptor = target: T1, human NK1 receptor (Homo sapiens, UniProt P25103); assay: FLIPR assay, inhibition of human NK1 receptor activation (intracellular Ca2+); assay type: cell-based
T1 construct: Human NK1 receptor cDNA (obtained from RNA-PCR from lung tissue) was subcloned into pRcCMV (Invitrogen); expressed in transfected cells
T1 sequence (P25103 whole entry): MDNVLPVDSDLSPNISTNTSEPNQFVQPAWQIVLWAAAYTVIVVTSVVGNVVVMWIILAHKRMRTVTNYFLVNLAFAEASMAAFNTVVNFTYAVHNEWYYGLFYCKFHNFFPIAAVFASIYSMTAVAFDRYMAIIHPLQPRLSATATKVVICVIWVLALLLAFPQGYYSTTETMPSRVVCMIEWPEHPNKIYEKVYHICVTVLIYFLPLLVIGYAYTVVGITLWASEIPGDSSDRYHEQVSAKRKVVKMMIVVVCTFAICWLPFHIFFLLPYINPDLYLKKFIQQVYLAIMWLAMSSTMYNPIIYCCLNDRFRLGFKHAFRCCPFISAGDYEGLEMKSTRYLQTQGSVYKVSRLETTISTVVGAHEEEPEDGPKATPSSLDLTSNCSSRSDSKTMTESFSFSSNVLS
Experimental: (§1) Chinese Hamster Ovary (CHO) K1 cells (obtained from ATCC) were stably transfected with the human NK2 receptor (hNK2R cDNA in pRc/CMV, Invitrogen) or the human NK3 receptor (hNK3R in pcDNA 3.1/Hygro (+)/IRES/CD8, Invitrogen vector modified at AstraZeneca EST-Bio UK, Alderley Park). The cells were transfected with the cationic lipid reagent LIPOFECTAMINE™ (Invitrogen) and selection was performed with Geneticin (G418, Invitrogen) at 1 mg/ml for the hNK2R transfected cells and with Hygromycin (Invitrogen) at 500 μg/ml for the hNK3R transfected cells. Single cell clones were collected by aid of Fluorescence Activated Cell Sorter (FACS), tested for functionality in a FLIPR assay (see below), expanded in culture and cryopreserved for future use. […]
(§2) The activity of a compound of the invention to inhibit NK1/NK2/NK3 receptor activation measured as NK1/NK2/NK3 receptor mediated increase in intracellular Ca^2+ was assessed by the following procedure:
(§3) CHO cells stably transfected with human NK1, NK2 or NK3 receptors were plated in black walled/clear bottomed 96-well plates (Costar 3904) at 3.5×10^4 cells per well and grown for approximately 24 h in normal growth media in a 37° C. […] The response was measured as the peak relative fluorescence after agonist addition and IC50s were calculated from ten-point concentration-response curves for each compound. […]

human NK2 receptor = target: T2, human NK2 receptor (Homo sapiens, UniProt P21452); assay: FLIPR assay, inhibition of human NK2 receptor activation (intracellular Ca2+); assay type: cell-based
T2 construct: expressed in transfected cells
T2 sequence (P21452 1-398): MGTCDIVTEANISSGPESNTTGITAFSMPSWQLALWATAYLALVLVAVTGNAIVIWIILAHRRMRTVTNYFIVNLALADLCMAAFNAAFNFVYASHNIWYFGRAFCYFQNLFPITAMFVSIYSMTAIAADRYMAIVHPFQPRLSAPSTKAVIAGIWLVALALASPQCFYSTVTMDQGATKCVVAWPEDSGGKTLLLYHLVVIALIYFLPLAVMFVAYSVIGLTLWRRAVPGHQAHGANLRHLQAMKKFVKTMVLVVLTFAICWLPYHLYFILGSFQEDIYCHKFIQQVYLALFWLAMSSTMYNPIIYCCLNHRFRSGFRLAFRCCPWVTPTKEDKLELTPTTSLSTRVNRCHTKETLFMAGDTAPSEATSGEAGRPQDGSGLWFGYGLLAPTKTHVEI
Experimental: as §1, §2, §3

human NK3 receptor = target: T3, human NK3 receptor (Homo sapiens, UniProt P29371); assay: FLIPR assay, inhibition of human NK3 receptor activation (intracellular Ca2+); assay type: cell-based
T3 construct: expressed in transfected cells
T3 sequence (P29371 1-465): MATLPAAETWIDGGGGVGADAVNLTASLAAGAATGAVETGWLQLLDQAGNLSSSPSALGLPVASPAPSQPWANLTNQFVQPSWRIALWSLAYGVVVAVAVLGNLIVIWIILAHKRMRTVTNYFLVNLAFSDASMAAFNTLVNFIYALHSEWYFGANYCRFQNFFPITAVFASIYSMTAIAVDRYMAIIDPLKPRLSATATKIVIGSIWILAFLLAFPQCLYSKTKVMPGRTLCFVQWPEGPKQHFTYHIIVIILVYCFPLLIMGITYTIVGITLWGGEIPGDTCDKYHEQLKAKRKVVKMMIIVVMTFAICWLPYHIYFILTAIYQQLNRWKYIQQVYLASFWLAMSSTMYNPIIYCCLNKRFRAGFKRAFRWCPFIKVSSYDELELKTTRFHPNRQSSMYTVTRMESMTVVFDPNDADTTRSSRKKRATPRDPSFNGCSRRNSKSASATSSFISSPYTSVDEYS
Experimental: as §1, §2, §3

[1] = target: hERG-encoded potassium channel (Homo sapiens, UniProt Q12809); assay: Activity against hERG (planar-array-based voltage clamp); assay type: cell-based
hERG-encoded potassium channel, sequence (Q12809 whole entry): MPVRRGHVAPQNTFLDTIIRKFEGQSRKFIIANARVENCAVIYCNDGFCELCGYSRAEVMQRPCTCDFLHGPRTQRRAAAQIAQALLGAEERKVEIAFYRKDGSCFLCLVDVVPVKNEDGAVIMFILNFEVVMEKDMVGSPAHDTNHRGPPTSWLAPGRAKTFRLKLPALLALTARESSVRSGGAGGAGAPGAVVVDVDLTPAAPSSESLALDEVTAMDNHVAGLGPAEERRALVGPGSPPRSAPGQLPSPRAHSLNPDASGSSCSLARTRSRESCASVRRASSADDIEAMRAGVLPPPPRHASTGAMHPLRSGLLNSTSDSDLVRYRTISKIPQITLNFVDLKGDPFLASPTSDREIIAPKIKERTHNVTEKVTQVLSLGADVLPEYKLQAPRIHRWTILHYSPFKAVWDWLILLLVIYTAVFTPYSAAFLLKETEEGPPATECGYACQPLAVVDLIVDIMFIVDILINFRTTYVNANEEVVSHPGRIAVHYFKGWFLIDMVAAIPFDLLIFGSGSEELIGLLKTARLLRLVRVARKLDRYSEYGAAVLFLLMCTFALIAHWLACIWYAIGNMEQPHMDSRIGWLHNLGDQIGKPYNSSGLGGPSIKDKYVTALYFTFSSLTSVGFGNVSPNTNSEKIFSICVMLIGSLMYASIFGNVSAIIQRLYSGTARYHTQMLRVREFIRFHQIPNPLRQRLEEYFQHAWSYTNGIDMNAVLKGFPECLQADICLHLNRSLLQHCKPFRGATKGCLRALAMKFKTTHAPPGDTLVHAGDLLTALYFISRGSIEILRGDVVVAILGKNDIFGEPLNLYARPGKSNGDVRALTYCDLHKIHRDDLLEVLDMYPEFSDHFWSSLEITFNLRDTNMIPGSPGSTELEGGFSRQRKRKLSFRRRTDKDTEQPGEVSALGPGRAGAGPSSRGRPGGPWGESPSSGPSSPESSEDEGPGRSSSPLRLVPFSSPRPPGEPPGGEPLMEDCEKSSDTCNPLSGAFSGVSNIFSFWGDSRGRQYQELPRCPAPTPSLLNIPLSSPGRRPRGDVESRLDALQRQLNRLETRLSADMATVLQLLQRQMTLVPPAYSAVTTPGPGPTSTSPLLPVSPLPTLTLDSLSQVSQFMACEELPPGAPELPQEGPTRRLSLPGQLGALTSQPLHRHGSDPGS
Description: The activity of compounds according to formula I against the hERG-encoded potassium channel can be determined according to Kiss L, et al. Assay Drug Dev Technol. 1 (2003), 127-35: “High throughput ion-channel pharmacology: planar-array-based voltage clamp”.

[2] = Metabolic stability in liver microsomes (intrinsic clearance); assay type: in vitro ADME; conditions: human, pH 7.4, HLM
Experimental: The metabolic stability of compounds according to formula I can be determined as described below: The rate of biotransformation can be measured as either metabolite(s) formation or the rate of disappearance of the parent compound. The experimental design involves incubation of low concentrations of substrate (usually 1.0 μM) with liver microsomes (usually 0.5 mg/ml) and taking out aliquotes at varying time points (usually 0, 5, 10, 15, 20, 30, 40 min.). The test compound is usually dissolved in DMSO. The DMSO concentration in the incubation mixture is usually 0.1% or less since more solvent can drastically reduce the activities of some CYP450s. Incubations are done in 100 mM potassium phosphate buffer, pH 7.4 and at 37° C. Acetonitrile or methanol is used to stop the reaction. The parent compound is analysed by HPLC-MS. From the calculated half-life, t1/2, the intrinsic clearance, Clint, is estimated by taking microsomal protein concentration and liver weight is into account.

CN(C[C@@H](CCN1CC(N2[C@@H]3CC[C@H]2CC(O)C3)C1)c1ccc(F)cc1)C(=O)c1cc(Br)cc(C(F)(F)F)c1 (stereo partly drawn) [Ex 1, exo-3-Bromo-N-((2S)-2-(4-fluorophenyl)-4-{3-(3-hydroxy-8-azabicyclo[3.2.1]oct-8-yl)azetidin-1-yl}butyl)-N-methyl-5-(trifluoromethyl)benzamide dihydrochloride]
Kb (human NK1 receptor): 0.00794 µM | Kb (human NK2 receptor): 0.00794 µM | Kb (human NK3 receptor): 0.0126 µM | IC50 [1]: 13 µM | microsomal CLint at 1 μM [2]: 28 µL/min/mg
